From paper PMC8352984, “Estrogen mediates sex differences in preoptic neuropeptide and pituitary hormone production in medaka” (Communications Biology, 2021)
pEC50: −log10 of the molar value.

How the values were obtained:
Type in all cases: cell-based, medaka (Oryzias latipes)
[1] = system: growth hormone (gh) gene expression; assay: Ex vivo pituitary organ culture, real-time PCR of gh; settings: for gh expression (in words): 10^-5 M, 24 h, 25 °C, vs vehicle
Text: (§1) Fig. 8 Pacap and Vip have pleiotropic effects on the expression of anterior pituitary hormones. The effects of Pacap and Vip on gene expression levels of follicle-stimulating hormone β subunit (fshb), luteinizing hormone β subunit (lhb), thyroid-stimulating hormone β subunit (tshb), growth hormone (gh), somatolactin (sl), prolactin (prl), and pro-opiomelanocortin (pomc) were investigated by using male and female pituitaries cultured ex vivo (n = 6 per group, except male pituitary supplemented with Vip, where n = 5). Data were expressed as means with error bars representing standard error of the mean. Statistical differences were assessed by Dunnett’s post-hoc test. *p < 0.05; **p < 0.01; ***p < 0.001.
(§2) The pituitaries from five male or female fish were pooled for each sample and cultured ex vivo in Leibovitz’s L-15 medium supplemented with 5% charcoal-stripped fetal bovine serum as described elsewhere. The medium was further supplemented with 10^−5 M medaka Pacap or Vip, or vehicle alone. After 24 h of culture at 25 °C, the pituitaries were processed for total RNA extraction and cDNA synthesis by using the RNeasy Plus Micro Kit (Qiagen) and SuperScript VILO cDNA Synthesis Kit (Thermo Fisher Scientific), respectively. Real-time PCR was performed on the LightCycler 480 System II using LightCycler 480 SYBR Green I Master (Roche Diagnostics). The cycle conditions were: 95 °C for 5 min followed by 45 cycles of 95 °C for 10 sec, 60 °C for 10 sec and 72 °C for 10 sec. Melting curve analysis was performed as described above. Data were normalized to the geometric mean of three reference genes, actb, gapdh (encoding glyceraldehyde-3-phosphate dehydrogenase; National BioResource Project (NBRP) Medaka clone ID olbrno9_f15) and rpl13 (encoding ribosomal protein L13; NBRP Medaka clone ID olovano51_b24), according to Vandesompele et al.[63]. The primers used for real-time PCR are listed in Supplementary Table 3.

[2] = system: prolactin (prl) gene expression; assay: Ex vivo pituitary organ culture, real-time PCR of prl; settings: for prl expression (in words): 10^-5 M, 24 h, 25 °C, vs vehicle
Text: as §1, §2

[3] = system: luteinizing hormone β subunit (lhb) gene expression; assay: Ex vivo pituitary organ culture, real-time PCR of lhb; settings: for lhb expression (in words): 10^-5 M, 24 h, 25 °C, vs vehicle;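 as to lhb expression (Fig. 8, lhb): relative expression with female control samples set to 1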
Text: as §1, §2

[4] = system: follicle-stimulating hormone β subunit (fshb) gene expression; assay: Ex vivo pituitary organ culture, real-time PCR of fshb;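 as to fshb expression (Fig. 8, fshb): relative expression with female control samples set to 1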
Text: as §1, §2

medaka Adcyap1r1a = assay: Receptor activation assay, cAMP-responsive luciferase in COS-7 cells; settings: COS-7 cells
Text: (§3) The number at each node indicates bootstrap values for 1000 replicates. Scale bar represents 0.1 substitutions per site. SCTR, secretin receptor. For species names and GenBank accession numbers, see Supplementary Table 2. b Ability of Pacap and Vip to activate medaka Pacap/Vip receptors. […] Representative sections of pituitary at different levels along the anterior–posterior axis are shown. Arrowheads indicate expression signals. […] Scale bars represent 50 μm. f Identity of the pituitary cells expressing each Pacap/Vip receptor. The spatial expression pattern of each receptor was compared with that of each pituitary hormone gene in the RPD and PI. Left and middle panels show images of the expression of the indicated receptor (adcyap1r1a, adcyap1r1b, or vipr2b; green) and pituitary hormone gene (sl, prl, or pomc; magenta) in the same sections; right panels show the merged images with nuclear counterstaining (blue). […] Scale bars represent 20 μm. Quantitative data were expressed as means with error bars representing standard error of the mean. […] PI pars intermedia, PPD proximal pars distalis, RPD rostral pars distalis.
(§4) Receptor activation assay was performed essentially as described previously. Medaka Pacap (38 amino acids) and Vip (28 amino acids) polypeptides with amidated C termini were synthesized by Scrum (Tokyo, Japan). cDNA fragments encoding the full-length Adcyap1r1a (GenBank accession number XM_023965124), Adcyap1r1b (XM_011474272), Vipr1a (XM_023950180), Vipr1b (XM_004079106), Vipr2a (XM_023950048) and Vipr2b (XM_023965399) were PCR-amplified and subcloned into the expression vector pcDNA3.1/V5-His-TOPO (Thermo Fisher Scientific). Each of the resulting receptor expression constructs was transiently transfected into COS-7 cells (obtained from and authenticated by Riken BRC Cell Bank), together with the cAMP-responsive luciferase reporter vector pGL4.29 (Promega) and the internal control vector pGL4.74 (Promega) at a ratio of 11:18:1 for 6 h by using Lipofectamine LTX and Plus reagent (Thermo Fisher Scientific). Forty-two hours after transfection, cells were stimulated with Pacap or Vip at doses of 0, 10^−11, 10^−10, 10^−9, 10^−8, 10^−7, 10^−6 and 10^−5 M for 6 h. After cell lysis, luciferase activity was measured by using the Dual-Luciferase Reporter Assay System (Promega). Each assay was performed in triplicate and repeated three times independently.

medaka Vipr1a = assay: as above
Text: as §3, §4

medaka Vipr2b = assay: as above
Text: as §3, §4

[5] = COS-7 cells, 6 h stimulation, 10^-11 to 10^-5 M, luciferase, triplicate, repeated three times, read-out: half-maximal effective concentration (EC50)

vasoactive intestinal peptide [Vip]
gh expression (in words) ([1]; female pituitaries): no significant effects | gh expression (Fig. 8, gh) ([1]; female, replicate 1): 0.831 | gh expression (Fig. 8, gh) ([1]; female, replicate 2): 0.891 | gh expression (Fig. 8, gh) ([1]; female, replicate 3): 0.819 | gh expression (Fig. 8, gh) ([1]; female, replicate 4): 0.622 | gh expression (Fig. 8, gh) ([1]; female, replicate 5): 0.476 | gh expression (Fig. 8, gh) ([1]; female, replicate 6): 1.314 | gh expression (in words) ([1]; male pituitaries): no significant effects | gh expression (Fig. 8, gh) ([1]; male, replicate 1): 0.673 | gh expression (Fig. 8, gh) ([1]; male, replicate 2): 0.774 | gh expression (Fig. 8, gh) ([1]; male, replicate 3): 0.572 | gh expression (Fig. 8, gh) ([1]; male, replicate 5): 0.496 | gh expression (Fig. 8, gh) ([1]; male, replicate 6): 0.481 | prl expression (in words) ([2]; female pituitaries): substantially increased | prl expression (Fig. 8, prl) ([2]; female, replicate 1): 4.014 | prl expression (Fig. 8, prl) ([2]; female, replicate 2): 5.400 | prl expression (Fig. 8, prl) ([2]; female, replicate 3): 2.330 | prl expression (Fig. 8, prl) ([2]; female, replicate 4): 5.283 | prl expression (Fig. 8, prl) ([2]; female, replicate 5): 3.539 | prl expression (Fig. 8, prl) ([2]; female, replicate 6): 6.475 | prl expression (in words) ([2]; male pituitaries): substantially increased | prl expression (Fig. 8, prl) ([2]; male, replicate 1): 3.340 | prl expression (Fig. 8, prl) ([2]; male, replicate 2): 4.481 | prl expression (Fig. 8, prl) ([2]; male, replicate 3): 3.982 | prl expression (Fig. 8, prl) ([2]; male, replicate 5): 3.314 | prl expression (Fig. 8, prl) ([2]; male, replicate 6): 4.421 | lhb expression (in words) ([3]; female pituitaries): no significant effect | lhb expression (Fig. 8, lhb) ([3]; female, replicate 1): 0.807 | lhb expression (Fig. 8, lhb) ([3]; female, replicate 2): 0.719 | lhb expression (Fig. 8, lhb) ([3]; female, replicate 3): 1.380 | lhb expression (Fig. 8, lhb) ([3]; female, replicate 4): 0.757 | lhb expression (Fig. 8, lhb) ([3]; female, replicate 5): 0.750 | lhb expression (Fig. 8, lhb) ([3]; female, replicate 6): 0.836 | lhb expression (in words) ([3]; male pituitaries): no significant effect | lhb expression (Fig. 8, lhb) ([3]; male, replicate 1): 1.203 | lhb expression (Fig. 8, lhb) ([3]; male, replicate 2): 1.004 | lhb expression (Fig. 8, lhb) ([3]; male, replicate 3): 1.517 | lhb expression (Fig. 8, lhb) ([3]; male, replicate 5): 0.870 | lhb expression (Fig. 8, lhb) ([3]; male, replicate 6): 0.512 | fshb expression (in words) ([4]; female pituitaries, 10^-5 M, 24 h, 25 °C, vs vehicle): significantly reduced | fshb expression (Fig. 8, fshb) ([4]; female, replicate 1): 0.539 | fshb expression (Fig. 8, fshb) ([4]; female, replicate 2): 0.835 | fshb expression (Fig. 8, fshb) ([4]; female, replicate 3): 0.607 | fshb expression (Fig. 8, fshb) ([4]; female, replicate 4): 0.498 | fshb expression (Fig. 8, fshb) ([4]; female, replicate 5): 0.542 | fshb expression (Fig. 8, fshb) ([4]; female, replicate 6): 0.944 | fshb expression (Fig. 8, fshb) ([4]; male, replicate 1): 0.537 | fshb expression (Fig. 8, fshb) ([4]; male, replicate 2): 0.688 | fshb expression (Fig. 8, fshb) ([4]; male, replicate 3): 0.453 | fshb expression (Fig. 8, fshb) ([4]; male, replicate 5): 0.338 | fshb expression (Fig. 8, fshb) ([4]; male, replicate 6): 0.319 | receptor activation, increase in intracellular cAMP levels (in words) (medaka Adcyap1r1a; 6 h): dose-dependently activated all six receptors | pEC50 (medaka Adcyap1r1a; 6 h stimulation, 10^-11 to 10^-5 M, luciferase, triplicate, repeated three times, read-out: half-maximal effective concentration (EC50)): 7.49 | potency of Pacap and Vip compared (in words) (medaka Vipr1a): fairly similar potencies | receptor activation, increase in intracellular cAMP levels (in words) (medaka Vipr1a; COS-7 cells, 6 h): dose-dependently activated all six receptors | pEC50 (medaka Vipr1a; [5]): 9.37 | potency of Pacap and Vip compared (in words) (medaka Vipr2b): fairly similar potencies | receptor activation, increase in intracellular cAMP levels (in words) (medaka Vipr2b; COS-7 cells, 6 h): dose-dependently activated all six receptors | pEC50 (medaka Vipr2b; [5]): 5.37
